Earlier results as cited in PMC7395068, “The evolution of strategies to minimise the risk of human drug-induced liver injury (DILI) in drug discovery and development” (Archives of Toxicology, 2020).
Like-named read-outs stand apart in the source and are kept apart here.

Assays:
[1] = cited from earlier work
human hepatocytes = conditions: cited from earlier work
[2] = cited from earlier work; remark: listed apart in the source
[3] = test system: THLE-Null and THLE-3A4 cells; conditions: In vitro Assay; ref Gustafsson 2014; cited from earlier work
[4] = test system: HepG2 cells, primary human hepatocytes; conditions: cited from earlier work
[5] = cited from earlier work; remark: listed apart in the source
rBsep = conditions: In vitro Assay; ref Dawson 2012; cited from earlier work
[6] = test system: primary human hepatocytes, NIH3T3 fibroblasts, BSEP, CYP3A4; conditions: In vitro Assay; ref Schadt 2015; cited from earlier work
[7] = test system: THLE or HepG2 cells, isolated mitochondria, BSEP; conditions: In vitro Assay; ref Aleo 2019; cited from earlier work
PHH = conditions: In vitro Assay; ref Proctor 2017; cited from earlier work
hLiMTs = conditions: In vitro Assay; ref Proctor 2017; cited from earlier work
PHH spheroids = conditions: In vitro Assay; ref Vorrink 2018; cited from earlier work
[8] = test system: HepG2 C3A spheroid, BSEP, Glu/Gal in HepG2 cells, bioactivation; conditions: In vitro Assay; ref Williams 2019; cited from earlier work
HepG2 cells [9] = conditions: In vitro Assay; ref Persson 2013; cited from earlier work
HepG2 cells [10] = conditions: In vitro Assay; ref O'Brien 2006; cited from earlier work
[11] = test system: isolated mouse liver mitochondria; conditions: In vitro Assay; ref Porceddu 2012; cited from earlier work
[12] = In vitro Assay, ref Garside 2014

SMILES	THLE-Null [3]	THLE-Null/3A4 [3]	Cluster 1-6 +VE Assay [4, 12]	DILI Score (FDA) (1-8) ([5]; ref Chen 2011)	Inhibition of rBsep cutoff<1& cmax u>.2 (rBsep)	Inhibition of rBsep cutoff<3 (rBsep)	DILI +VE (5-8), DILI -VE (-4) ([1]; ref Chen 2016)	DILI severity category ([1]; ref Chen 2016)	Partition Hybrid HRM Score [7]	Ro2 Hybrid HRM Score [7]	hLiMTs ATP <20 x Cmax (PHH spheroids)	In vivo DILI ([2]; ref Vorrink 2018)	Structural based (HCI) (human hepatocytes; In vitro Assay, ref Xu 2008)	In vivo DILI ([2]; ref Aleo 2019)	In vivo DILI ([2]; ref Garside 2014)	In vivo DILI ([2]; ref Xu 2008)	In vivo DILI ([2]; […])	In vivo DILI ([2]; ref Gustafsson 2014)	Structural based (HCI) (HepG2 cells [10])	In vivo DILI ([2]; ref O'Brien 2006)	further results
COc1cc(C)c(/C=C/C(C)=C/C=C/C(C)=C/C(=O)O)c(C)c1C [acitretin]	+VE	+VE	+VE	5	-VE	+VE															DILI +VE (5-8), DILI -VE (-4) ([1]; in vivo): +VE; DILI severity category ([1]; in vivo): vMost-DILI-Concern; Structural based (HCI) (human hepatocytes): -VE; In vivo DILI ([2]; in vivo): +VE
COC(c1ccccc1)(c1ccccc1)[C@H](Oc1nc(C)cc(C)n1)C(=O)O [ambrisentan]				5			-VE	Ambiguous DILI-concern	-VE	-VE	-VE	-VE									Cellular toxicity (3T3 cells) [6]: -VE; Combined Assay [6]: -VE; GSH adduct HML [6]: -VE; Hepatocyte cellular toxicity [6]: -VE; MitoTox 3T3 [6]: -VE; TDI CYP3A4 [6]: -VE; hBSEP inhibition [6]: -VE; PHH ATP <100uM (PHH): -VE; hLiMTs ATP <100uM (hLiMTs): -VE; Bayesian Machine Learning [8]: -VE; In vivo DILI ([2]; ref Proctor 2017): -VE; In vivo DILI ([2]; ref Schadt 2015): -VE; In vivo DILI ([2]; ref Williams 2019): -VE
CC(O)(CS(=O)(=O)c1ccc(F)cc1)C(=O)Nc1ccc(C#N)c(C(F)(F)F)c1 (stereo not drawn) [bicalutamide]			+VE	8			+VE	vMost-DILI-Concern					-VE	+VE	+VE	+VE					Cluser analysis (HepG2 cells [9]): -VE; Structural based (HCI) (HepG2 cells [9]): +VE; In vivo DILI ([2]; ref Persson 2013): +VE
CCCNC(=O)NS(=O)(=O)c1ccc(Cl)cc1 [chlorpropamide]	-VE	-VE	-VE	2	-VE	-VE	+VE	vLess-DILI-Concern	-VE	+VE				+VE	+VE		+VE	+VE			In vivo DILI ([2]; ref Dawson 2012): +VE
CN(C)/N=N/c1[nH]cnc1C(N)=O [dacarbazine]	-VE	-VE	-VE	6			+VE	vMost-DILI-Concern	-VE	+VE	+VE (IC20 < 20 × Cmax.tot cut-off)	+VE		+VE	+VE		+VE	+VE			
CNCCCN1c2ccccc2CCc2ccccc21 [desipramine]				3			-VE	Ambiguous DILI-concern		+VE						-VE					PHH ATP <100uM (PHH): +VE (IC50 threshold of 100 µM); hLiMTs ATP <100uM (hLiMTs): +VE (IC50 threshold of 100 µM); Bayesian Machine Learning [8]: +VE; In vivo DILI ([2]; ref Proctor 2017): +VE; In vivo DILI ([2]; ref Schadt 2015): -VE; In vivo DILI ([2]; ref Williams 2019): +VE
CC1=C(/C=C/C(C)=C/C=C/C(C)=C\C(=O)O)C(C)(C)CCC1 [isotretinoin]			+VE	2			+VE	vMost-DILI-Concern					+VE		+VE	+VE			-VE	+VE	
C[C@](N)(Cc1ccc(O)c(O)c1)C(=O)O [methyldopa]	-VE	-VE	-VE	8	-VE	-VE	+VE	vMost-DILI-Concern							+VE		+VE	+VE	-VE	+VE	Cluser analysis (HepG2 cells [9]): -VE; Structural based (HCI) (HepG2 cells [9]): +VE; In vivo DILI ([2]; ref Dawson 2012): +VE; In vivo DILI ([2]; ref Persson 2013): +VE; In vivo DILI ([2]; ref Porceddu 2012): -VE; in vitro data EC2<=1x Cmax [11]: +VE; in vitro data EC20<=2uM [11]: -VE
Fc1ccc([C@@H]2CCNC[C@H]2COc2ccc3c(c2)OCO3)cc1 [paroxetine]				8			+VE	vLess-DILI-Concern	+VE	-VE	-VE	-VE	-VE	+VE		-VE	-VE		-VE	+VE	PHH ATP <100uM (PHH): +VE (IC50 threshold of 100 µM); hLiMTs ATP <100uM (hLiMTs): +VE (IC50 threshold of 100 µM); Bayesian Machine Learning [8]: +VE; In vivo DILI ([2]; ref Proctor 2017): +VE; In vivo DILI ([2]; ref Williams 2019): +VE
CC1=C(CC(=O)O)c2cc(F)ccc2/C1=C\c1ccc([S+](C)[O-])cc1 (stereo not drawn) [sulindac]	-VE		-VE	8	+VE	+VE	+VE	vMost-DILI-Concern					+VE	+VE	+VE	+VE	+VE	+VE	+VE	+VE	Cellular toxicity (3T3 cells) [6]: -VE; Combined Assay [6]: +VE; GSH adduct HML [6]: +VE; Hepatocyte cellular toxicity [6]: -VE; MitoTox 3T3 [6]: -VE; TDI CYP3A4 [6]: -VE; hBSEP inhibition [6]: -VE; Cluser analysis (HepG2 cells [9]): -VE; Structural based (HCI) (HepG2 cells [9]): -VE; In vivo DILI ([2]; ref Dawson 2012): +VE; In vivo DILI ([2]; ref Persson 2013): +VE; In vivo DILI ([2]; ref Porceddu 2012): +VE; In vivo DILI ([2]; ref Schadt 2015): +VE; in vitro data EC2<=1x Cmax [11]: +VE; in vitro data EC20<=2uM [11]: +VE
CN(C/C=C/C#CC(C)(C)C)Cc1cccc2ccccc12 [terbinafine]	+VE	-VE	-VE	8			+VE	vMost-DILI-Concern							+VE			+VE	+VE	+VE	In vivo DILI ([2]; ref Porceddu 2012): +VE; in vitro data EC2<=1x Cmax [11]: +VE; in vitro data EC20<=2uM [11]: +VE
CN(C)[C@@H]1C(O)=C(C(N)=O)C(=O)[C@@]2(O)C(O)=C3C(=O)c4c(O)cccc4[C@@](C)(O)[C@H]3C[C@@H]12 [tetracycline]											+VE (IC20 < 20 × Cmax.tot cut-off)										DILI +VE (5-8), DILI -VE (-4) ([1]; in vivo): +VE; DILI severity category ([1]; in vivo): vLess-DILI-Concern; Structural based (HCI) (human hepatocytes): +VE; Cluster 1-6 +VE Assay [4]: -VE; DILI Score (FDA) (1-8) ([5]; in vivo): 2
CN1CCN(CCCN2c3ccccc3Sc3ccc(C(F)(F)F)cc32)CC1 [trifluoperazine, reference compound]			+VE	2			-VE	Ambiguous DILI-concern			-VE	+VE	+VE		+VE	+VE			-VE	+VE	in vivo DILI classification in publications of Supplemental Table 1 ([2]; publications disagreeing with the LTKB classification, ref Supplemental Table 1 publications): DILI positive in vivo
